From US20080206422A1, “Flavour Modulating Substances” (QUEST INTERNATIONAL SERVICES B.V., priority 2004, published 2008)

Assays:
[1] = Tasting of fish bouillon samples by a professional panel; conditions: sample 5: fish bouillon + 20 ppm of composition of example 2
Method: (§1) Six samples were prepared:
2. Fish bouillon+100 ppm of a composition as prepared in example 1;
5. Fish bouillon+20 ppm of a composition as prepared in example 2; and
(§2) All samples were tasted by a professional panel. There was general agreement about the differences in taste between the samples.

[2] = Tasting of Nam Pla (Thai fish sauce) samples by a professional panel; conditions: sample 6: Nam Pla + 20 ppm of composition of example 2
Method: as §1
3. Nam Pla* ex Unilever Thailand;
4. Nam Pla ex Unilever Thailand+100 ppm of a composition as prepared in example 1;
6. Nam Pla ex Unilever Thailand+20 ppm of a composition as prepared in example 2.
Nam Pla is a Thai fish sauce produced from a mixture of fish (anchovy), salt and sugar that is fermented for more than 6 months at 30-35° C. Protein hydrolysate and lipid oxidation products are formed through microbiological and enzymatic breakdown of the fish.
as §2

[3] = Tasting session of tap water solutions by a professional panel
Method: For a tasting session the following solutions were prepared: • 1) A solution of 0.025% of a composition as prepared in example 1 in tap water; • 2) A solution of 0.025% of a composition as prepared in example 1 and 0.3% NaCl in tap water; • 3) A solution of 0.025% of a composition as prepared in example 1, 0.3% NaCl and 0.03% mono sodium glutamate in tap water; • 4) A solution of 0.005% of a composition as prepared in example 2 in tap water; • 5) A solution of 0.005% of a composition as prepared in example 2 and 0.3% NaCl in tap water; and • 6) A solution of 0.005% of a composition as prepared in example 2, 0.3% NaCl and 0.03% mono sodium glutamate in tap water. • All samples were tasted by a professional panel.

## CC(O)C(=O)NCCc1ccc(O)cc1 (stereo not drawn) [example 2, N-lactoyl tyramine]
[1]
  difference in taste compared with plain fish bouillon (sample 1): more body and mouthfeel, a stronger sweet taste impression and a more longlasting effect
[2]
  difference in taste compared with plain Nam Pla (sample 3): more body and mouthfeel, a stronger sweet taste impression and a more longlasting effect
  fermented fish character and perceived quality compared with plain Nam Pla (sample 3): a more rounded, natural fermented fish character and was perceived as a higher quality Nam Pla
[3]; solution 4): 0.005% of composition of example 2 in tap water
  taste description by professional panel: a clean mouthfeel, body and thickness
[3]; solution 5): 0.005% of composition of example 2 and 0.3% NaCl in tap water
  taste description by professional panel: a longlasting effect, a clean mouthfeel, body and thickness and as bouillon-like
[3]; solution 6): 0.005% of composition of example 2, 0.3% NaCl and 0.03% mono sodium glutamate in tap water
  taste description by professional panel: a longlasting effect, a strong clean mouthfeel, body and thickness and as strong, natural and complex bouillon-like
